Measured values taken from ChEMBL document CHEMBL1201862, “PubChem BioAssay data set” (2004).
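Grown in 96-well plates, cells were treated for 48 hours with each compound at five concentrations. Insufficient inhibition: endpoint recorded as highest concentration tested. Abbreviation: GI50, concentration required for 50% inhibition of growth.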 Calls of active or inactive are those of the source. Cut-off read from the data, not from the text of the source: active = GI50 up to about 1.1 µM and inactive = higher. Where a SMILES comes first, the peptide text is derived from it. The star is where a group is joined. Boc = CC(C)(C)OC(=O)*

Legend:
Test in all cases: NCI-60 cell line screen, 48 h
NCI/ADR-RES = system: NCI/ADR-RES
ACHN = system: ACHN
OVCAR-8 = system: OVCAR-8
SF-539 = system: SF-539
HL-60 = system: HL-60
UO-31 = system: UO-31
LOX IMVI = system: LOX IMVI
RXF 393 = system: RXF 393
SK-MEL-28 = system: SK-MEL-28
CAKI-1 = system: CAKI-1
K562 = system: K562
CCRF-CEM = system: CCRF-CEM
A498 = system: A498
IGROV-1 = system: IGROV-1
HT-29 = system: HT-29
EKVX = system: EKVX
Hs-578T = system: Hs-578T
MCF7 = system: MCF7

SMILES | GI50 (NCI/ADR-RES) | GI50 (ACHN) | GI50 (OVCAR-8) | GI50 (SF-539) | GI50 (HL-60) | GI50 (UO-31) | GI50 (LOX IMVI) | GI50 (RXF 393) | GI50 (SK-MEL-28) | GI50 (CAKI-1) | GI50 (K562) | GI50 (CCRF-CEM) | GI50 (A498) | GI50 (IGROV-1) | GI50 (HT-29) | GI50 (EKVX) | GI50 (Hs-578T) | GI50 (MCF7)
COC(=O)C(Cc1c(C2Nc3ccccc3C2CC(NC(C)=O)C(=O)OC)[nH]c2ccccc12)NC(C)=O (configuration not stated) | > 100 µM (inactive) | > 100 µM (inactive) | > 100 µM (inactive) | > 100 µM (inactive) | > 100 µM (inactive) | > 100 µM (inactive) | > 100 µM (inactive) | > 100 µM (inactive) | > 100 µM (inactive) | > 100 µM (inactive) | > 100 µM (inactive) | > 100 µM (inactive) | > 100 µM (inactive) | > 100 µM (inactive) | > 100 µM (inactive) | > 100 µM (inactive) | > 100 µM (inactive) | –
CCN1C(=O)/C(=C/Nc2ccccc2)S/C1=N/Nc1nc(-c2ccc(O)c(O)c2)cs1 | 3.61 µM (inactive) | 15.3 µM (inactive) | 5.07 µM (inactive) | 2.07 µM (inactive) | 2.33 µM (inactive) | 8.02 µM (inactive) | 6.08 µM (inactive) | 3.39 µM (inactive) | 7.59 µM (inactive) | 31.8 µM (inactive) | 3.4 µM (inactive) | 4.53 µM (inactive) | – | 32.6 µM (inactive) | 29.8 µM (inactive) | 16.9 µM (inactive) | 96.2 µM (inactive) | 4 µM (inactive)
COc1cc(C(=O)Nc2c3ccccc3nc3ccccc23)cc(OC)c1OC | > 93.5 µM (inactive) | > 50.1 µM (inactive) | > 59.7 µM (inactive) | > 100 µM (inactive) | 3.64 µM (inactive) | 40.3 µM (inactive) | > 100 µM (inactive) | 14.2 µM (inactive) | > 100 µM (inactive) | > 22.1 µM (inactive) | > 54.3 µM (inactive) | 20.5 µM (inactive) | – | > 100 µM (inactive) | > 100 µM (inactive) | > 59 µM (inactive) | > 100 µM (inactive) | > 100 µM (inactive)
COC1CC(OC2C(C)OC(OC3C(C)OC(OC4C(C)OC(O[C@H]5CC[C@@]6(C)C(=CC[C@]7(O)[C@@H]6C[C@@H](OC(=O)/C=C(\C)C(C)C)[C@@]6(C)[C@]7(O)CC[C@@]6(O)C(C)=O)C5)CC4OC)CC3OC)CC2OC)OC(C)C1O (some centres not stated) | > 12.5 µM (inactive) | > 12.5 µM (inactive) | > 12.5 µM (inactive) | > 12.5 µM (inactive) | 5.11 µM (inactive) | 4.85 µM (inactive) | > 12.5 µM (inactive) | – | – | > 12.5 µM (inactive) | 10.9 µM (inactive) | > 12.5 µM (inactive) | – | > 12.5 µM (inactive) | > 12.5 µM (inactive) | > 12.5 µM (inactive) | > 12.5 µM (inactive) | > 12.5 µM (inactive)
O=C1NCCCNCCCNCCCNC(=O)c2cccc1n2 | > 100 µM (inactive) | > 100 µM (inactive) | > 100 µM (inactive) | > 100 µM (inactive) | – | > 100 µM (inactive) | > 100 µM (inactive) | 18.1 µM (inactive) | > 100 µM (inactive) | > 100 µM (inactive) | > 100 µM (inactive) | > 100 µM (inactive) | – | > 100 µM (inactive) | > 100 µM (inactive) | > 100 µM (inactive) | > 100 µM (inactive) | –
CC1=C(/C=C/C(C)=C/C=C/C(C)=C/C(=O)OCC2OC(n3cc(F)c(=O)[nH]c3=O)CC2OC(=O)/C=C(C)/C=C/C=C(C)/C=C/C2=C(C)CCCC2(C)C)C(C)(C)CCC1 (configuration not stated) | 5.21 µM (inactive) | 0.418 µM (active) | 1.71 µM (inactive) | 0.314 µM (active) | 1.14 µM (inactive) | 0.94 µM (active) | 3.48 µM (inactive) | 22.3 µM (inactive) | 20.9 µM (inactive) | 0.959 µM (active) | 4.66 µM (inactive) | 0.684 µM (active) | – | 6.32 µM (inactive) | 11.2 µM (inactive) | > 54.3 µM (inactive) | 9.25 µM (inactive) | 0.225 µM (active)
COC(=O)C(C)NC(=O)C(CCSC)NC(=O)C(Cc1ccccc1)NC(=O)OC(C)(C)C (stereo not drawn) (Boc-Phe-Met-Ala-OMe; configuration not given here) | > 100 µM (inactive) | > 100 µM (inactive) | > 100 µM (inactive) | > 100 µM (inactive) | 63.2 µM (inactive) | > 100 µM (inactive) | > 100 µM (inactive) | – | > 100 µM (inactive) | > 100 µM (inactive) | – | > 100 µM (inactive) | – | > 100 µM (inactive) | > 100 µM (inactive) | – | > 100 µM (inactive) | > 100 µM (inactive)
C/C(=N\Nc1nc2ccccc2s1)c1cccnn1 | 2.31 µM (inactive) | 0.718 µM (active) | 1.66 µM (inactive) | 3.55 µM (inactive) | – | 1.24 µM (inactive) | – | 17.1 µM (inactive) | 4.56 µM (inactive) | 1.04 µM (active) | 3.23 µM (inactive) | 0.381 µM (active) | – | 0.581 µM (active) | 3.24 µM (inactive) | 0.753 µM (active) | 12.1 µM (inactive) | 2.75 µM (inactive)
CCOC(=O)c1nc2cc(F)cc(F)c2[nH]c1=O | > 100 µM (inactive) | > 100 µM (inactive) | > 100 µM (inactive) | > 100 µM (inactive) | > 100 µM (inactive) | 72.8 µM (inactive) | > 100 µM (inactive) | – | > 100 µM (inactive) | > 100 µM (inactive) | > 100 µM (inactive) | > 100 µM (inactive) | > 100 µM (inactive) | > 100 µM (inactive) | > 100 µM (inactive) | – | > 100 µM (inactive) | > 100 µM (inactive)
CSc1cc(Cl)c(C)cc1S(=O)(=O)NC(=O)NNc1ccc(F)cc1 | > 100 µM (inactive) | 66.8 µM (inactive) | > 100 µM (inactive) | > 100 µM (inactive) | – | – | > 100 µM (inactive) | > 100 µM (inactive) | > 100 µM (inactive) | > 100 µM (inactive) | > 100 µM (inactive) | – | > 100 µM (inactive) | > 100 µM (inactive) | > 100 µM (inactive) | > 100 µM (inactive) | > 100 µM (inactive) | > 100 µM (inactive)
CC1NC(=O)C2Cc3ccc(O)c(c3)Oc3ccc(cc3)C(O)C(C(=O)N2C)N(C)C(=O)C(C)NC(=O)C(Cc2ccc(O)cc2)N(C)C(=O)C(C)NC1=O (configuration not stated) | > 100 µM (inactive) | > 100 µM (inactive) | 24.7 µM (inactive) | 6.71 µM (inactive) | 13.9 µM (inactive) | > 100 µM (inactive) | 5.43 µM (inactive) | – | 19.2 µM (inactive) | > 100 µM (inactive) | > 100 µM (inactive) | 9.71 µM (inactive) | > 100 µM (inactive) | 4.85 µM (inactive) | 19.2 µM (inactive) | 57 µM (inactive) | 5.09 µM (inactive) | 13.7 µM (inactive)
CCc1ccccc1/N=N/C(=O)NNc1ccccc1CC | – | 19.8 µM (inactive) | 15.2 µM (inactive) | – | 23.2 µM (inactive) | 17.3 µM (inactive) | 18.5 µM (inactive) | – | 17.7 µM (inactive) | 27.9 µM (inactive) | 26.1 µM (inactive) | 25.3 µM (inactive) | 18.7 µM (inactive) | 11 µM (inactive) | 24 µM (inactive) | – | – | 19.2 µM (inactive)
CN(NC(=O)/C(=C/C=C/c1ccccc1)NC(=O)c1ccccc1)C1=C(Cl)C(=O)[N+](c2ccccc2)=CC1 | 20.7 µM (inactive) | 26.7 µM (inactive) | 21.1 µM (inactive) | 19.7 µM (inactive) | – | 26.5 µM (inactive) | 17.3 µM (inactive) | 20.1 µM (inactive) | 16.9 µM (inactive) | 35.4 µM (inactive) | 19.9 µM (inactive) | – | 39.4 µM (inactive) | 12.1 µM (inactive) | 29.2 µM (inactive) | 35.8 µM (inactive) | 42.7 µM (inactive) | 16.7 µM (inactive)
CC(=O)Nc1ccc(C(=O)NN2C(=O)CSC2c2ccc(O)cc2)cc1 (configuration not stated) | > 100 µM (inactive) | > 100 µM (inactive) | > 100 µM (inactive) | > 100 µM (inactive) | > 100 µM (inactive) | > 100 µM (inactive) | – | > 100 µM (inactive) | > 100 µM (inactive) | – | > 100 µM (inactive) | > 100 µM (inactive) | > 100 µM (inactive) | > 100 µM (inactive) | > 100 µM (inactive) | > 100 µM (inactive) | > 100 µM (inactive) | > 100 µM (inactive)
CCCC1NC(C#N)(C#N)C(CCC)NC1(C#N)C#N (configuration not stated) | 0.243 µM (active) | 0.296 µM (active) | 0.149 µM (active) | 0.197 µM (active) | < 0.0107 µM (active) | 0.0787 µM (active) | 0.105 µM (active) | – | 44.9 µM (inactive) | 0.0573 µM (active) | 0.0589 µM (active) | < 0.01 µM (active) | 21.7 µM (inactive) | 1.42 µM (inactive) | 0.115 µM (active) | 42.8 µM (inactive) | 3.07 µM (inactive) | 0.0689 µM (active)
COc1ccc(-c2cc(-c3ccccc3)nc(N)c2-c2ccc3ccccc3c2)cc1 | 1.98 µM (inactive) | 2.05 µM (inactive) | 1.66 µM (inactive) | 2.1 µM (inactive) | – | 1.99 µM (inactive) | 1.72 µM (inactive) | 1.82 µM (inactive) | 1.95 µM (inactive) | 3.46 µM (inactive) | 2.94 µM (inactive) | 3.13 µM (inactive) | 2.04 µM (inactive) | 1.68 µM (inactive) | 1 µM (active) | 1.83 µM (inactive) | 1.65 µM (inactive) | 1.83 µM (inactive)
CSC1(CC(=O)N(C)C)C(=O)Nc2ccccc21 (configuration not stated) | > 100 µM (inactive) | > 100 µM (inactive) | – | > 100 µM (inactive) | – | > 100 µM (inactive) | > 100 µM (inactive) | – | > 100 µM (inactive) | – | > 100 µM (inactive) | – | > 100 µM (inactive) | > 100 µM (inactive) | > 100 µM (inactive) | > 100 µM (inactive) | > 100 µM (inactive) | > 100 µM (inactive)
